Legend:
[1] = Toxicity test, LD50 mice p.os; settings: mouse, in vivo, po
Description: |Compound LD50 mice p. os in mg/kg

Anti-pentylenetetrazol = assay type: in vivo; settings: oral, 30 minutes before pentylenetetrazol treatment 130 mg/kg s.c.
Procedure: (§1) The pharmacologic activity of the compounds of the invention has been assessed by the following classical tests which are known to indicate useful therapeutic activities:
Anti-pentylenetetrazol (L. O. Randall, W. Schallek, G. A. Heise, E. F. Keith and R. Bagdon: J. Pharmacol. Exp. Therapeutics, 129, 163-171, 1960).
(§2) Main neuropharmacological effects of substituted benzodiazepine in oral
^a 30 minutes before pentylenetetrazol treatment 130 mg/kg s.c.

Anti-ECS = assay type: in vivo; settings: oral, 60 minutes before ECS
Procedure: as §1
ECS (E. A. Swinyard, W. C. Brown and L. S. Goodman: J. Pharmacol. Exp. Therapeutics, 106, 319-330, 1952.)
as §2
^b 60 minutes before ECS.

Analgesic = assay type: in vivo; settings: oral, prolongs reaction time 50 percent of control group in 50 percent of treated animals, read-out: Analgesic DE50
Procedure: as §1
Analgesic (N. B. Eddy and D. Leimbach: J. Pharmacol. Exp. Therapeutics, 107, 385-393, 1953.)
as §2
^c at 240 minutes after drug treatment.
^c' at 60 minutes after drug treatment.
^(x) Prolongs reaction time 50 percent of control group in 50 percent

Miorelaxation = assay type: in vivo; settings: oral, reduces "falling time" 50 percent of control group in 50 percent of treated animals, read-out: Miorelaxation DE50
Procedure: as §1
Miorelaxation (N. W. Dunham and T. S. Miya: J. Am. Pharm. Ass., 46, No. 3, 208-209, 1957.)
as §2
^d at 120 minutes after drug treatment.
^d' at 60 minutes after drug treatment.
^(xx) Reduces "falling time" 50 percent of control group in 50 percen

[2] = Spontaneous Motor Activity; assay type: in vivo; settings: 0.5 h; oral; 30 minutes period starting 30 minutes after drug treatment; reduces movements counts 50 percent of control activity in group of 4 animals; read-out: Spontaneous Motor Activity DE50
Procedure: as §1
Spontaneous Motor Activity (W. J. Kinnard and C. J. Carr: J. Pharmacol. Exp. Therapeutics, 121, 354-361, 1957.)
as §2
^e measured in 30 minutes period starting 30 minutes after drug
^(xxx) Reduces movements counts 50 percent of control activity in
group of 4 animals: 5 groups/dose.

[3] = convulsions, read-out: Anti-pentylenetetrazol, Convulsions DE50
[4] = death, read-out: Anti-pentylenetetrazol, Death DE50
[5] = convulsions, read-out: Anti-ECS, Convulsions DE50
[6] = death, read-out: Anti-ECS, Death DE50
[7] = 4 h, at 240 minutes after drug treatment
[8] = 2 h, at 120 minutes after drug treatment

**Q.** For `CC(=O)NCCCC(=O)OC1N=C(c2ccccc2)c2cc(Cl)ccc2NC1=O` (centres unmarked) [Example 1, 3-(4-acetamido)butyryl-oxy-7-chloro-1,3-dihydro-5-phenyl-2H-1,4-benzodiazepine-2-one], which LD50 [1] is on record?
**A.** The LD50 was 1500 mg/kg.

**Q.** And the ED50 (Anti-pentylenetetrazol; [3])?
**A.** Its ED50 is 7 mg/kg.

**Q.** What about the ED50 (Anti-pentylenetetrazol; [4]) of the same compound?
**A.** Its ED50 is 4 mg/kg.

**Q.** And the ED50 (Anti-ECS; [5])?
**A.** The ED50 was 38 mg/kg.

**Q.** What about the ED50 (Anti-ECS; [6]) of the same compound?
**A.** The ED50 was 0.22 mg/kg.

**Q.** And the ED50 (Analgesic; [7])?
**A.** Its ED50 is 26 mg/kg.

**Q.** And the ED50 (Miorelaxation; [8])?
**A.** The ED50 was 6.5 mg/kg.

**Q.** And the ED50 [2]?
**A.** Its ED50 is 9 mg/kg.

**Q.** For `CC(C)(C)OC(=O)NCCCC(=O)OC1N=C(c2ccccc2)c2cc(Cl)ccc2NC1=O` (centres unmarked) [Example 2, 7-chloro-1,3-dihydro-5-phenyl-3-(4-tertiary-butoxycarbonylamino)butyryloxy-2H-1,4-benzodiazepine-2-one], which LD50 [1] is on record?
**A.** Its LD50 is > 1500 mg/kg.

**Q.** And the ED50 (Anti-pentylenetetrazol; [3])?
**A.** The ED50 was 14 mg/kg.

**Q.** And the ED50 (Anti-pentylenetetrazol; [4])?
**A.** The ED50 was 7 mg/kg.

**Q.** What about the ED50 (Anti-ECS; [5]) of the same compound?
**A.** Its ED50 is 60 mg/kg.

**Q.** What about the ED50 (Anti-ECS; [6]) of the same compound?
**A.** The ED50 was 1 mg/kg.

**Q.** What about the ED50 (Analgesic; [7]) of the same compound?
**A.** Its ED50 is 42 mg/kg.

**Q.** What about the ED50 (Miorelaxation; [8]) of the same compound?
**A.** Its ED50 is 16 mg/kg.

**Q.** And the ED50 [2]?
**A.** The ED50 was 2.6 mg/kg.

**Q.** Which results are given for `CC(=O)NCCCC(=O)OC1N=C(c2ccccc2Cl)c2cc(Cl)ccc2NC1=O` (centres unmarked) [Example 3, 3-(4-acetamido)butyryloxy-7-chloro-5-o-chlorophenyl-1,3-dihydro-2H-1,4-benzodiazepine-2-one]?
**A.** LD50 [1]: 1200 mg/kg; ED50 (Anti-pentylenetetrazol; [3]): 2.6 mg/kg; ED50 (Anti-pentylenetetrazol; [4]): 0.15 mg/kg; ED50 (Anti-ECS; [5]): 4.6 mg/kg; ED50 (Anti-ECS; [6]): 0.02 mg/kg; ED50 (Analgesic; [7]): 42 mg/kg; ED50 (Miorelaxation; [8]): 4.2 mg/kg; ED50 [2]: 0.18 mg/kg

**Q.** For `CC(=O)NCCCC(=O)OC1N=C(c2ccccc2)c2cc(Cl)ccc2N(C)C1=O` (centres unmarked) [Example 4, 3-(4-acetamido)butyryloxy-7-chloro-1,3-dihydro-1-methyl-5-phenyl-2H-1,4-benzodiazepine-2-one], which LD50 [1] is on record?
**A.** The LD50 was 1000 mg/kg.

**Q.** What about the ED50 (Anti-pentylenetetrazol; [3]) of the same compound?
**A.** The ED50 was 5 mg/kg.

**Q.** And the ED50 (Anti-pentylenetetrazol; [4])?
**A.** Its ED50 is 2.2 mg/kg.

**Q.** And the ED50 (Anti-ECS; [5])?
**A.** The ED50 was 4 mg/kg.

**Q.** And the ED50 (Anti-ECS; [6])?
**A.** Its ED50 is 0.7 mg/kg.

**Q.** And the ED50 (Analgesic; [7])?
**A.** Its ED50 is 30 mg/kg.

**Q.** And the ED50 (Miorelaxation; [8])?
**A.** The ED50 was 19 mg/kg.

**Q.** And the ED50 [2]?
**A.** Its ED50 is 1.9 mg/kg.

**Q.** Which LD50 [1] does the source give for `CC(=O)NCC(=O)OC1N=C(c2ccccc2)c2cc(Cl)ccc2NC1=O` (centres unmarked) [Example 5, 3-acetamido-acetoxy-7-chloro-1,3-dihydro-5-phenyl-2H-1,4-benzodiazepine-2-one] here?
**A.** Its LD50 is 1400 mg/kg.

**Q.** What about the ED50 (Anti-pentylenetetrazol; [3]) of the same compound?
**A.** The ED50 was 6 mg/kg.

**Q.** And the ED50 (Anti-pentylenetetrazol; [4])?
**A.** The ED50 was 1.5 mg/kg.

**Q.** What about the ED50 (Anti-ECS; [5]) of the same compound?
**A.** Its ED50 is 12 mg/kg.

**Q.** What about the ED50 (Anti-ECS; [6]) of the same compound?
**A.** The ED50 was 0.32 mg/kg.

**Q.** What about the ED50 (Analgesic; [7]) of the same compound?
**A.** Its ED50 is 34 mg/kg.

**Q.** And the ED50 (Miorelaxation; [8])?
**A.** Its ED50 is 15 mg/kg.

**Q.** What about the ED50 [2] of the same compound?
**A.** Its ED50 is 0.7 mg/kg.

**Q.** What does the source list for `CC(=O)NCCCC(=O)OC1N=C(c2ccccc2Cl)c2cc(Cl)ccc2N(C)C1=O` (centres unmarked) [Example 6, 3-(4-acetamido)-butyryloxy-7-chloro-5-o-chlorophenyl-1,3-dihydro-1-methyl-2H-1,4-benzodiazepine-2-one]?
**A.** LD50 [1]: > 1000 mg/kg; ED50 (Anti-pentylenetetrazol; [3]): 0.2 mg/kg; ED50 (Anti-pentylenetetrazol; [4]): 0.16 mg/kg; ED50 (Anti-ECS; [5]): 5.5 mg/kg; ED50 (Anti-ECS; [6]): 0.032 mg/kg; ED50 (Analgesic; 1 h, at 60 minutes after drug treatment (c')): 19 mg/kg; ED50 (Miorelaxation; 1 h, at 60 minutes after drug treatment (d')): 2 mg/kg; ED50 [2]: 1.9 mg/kg

**Q.** For `O=C1Nc2ccc(Cl)cc2C(c2ccccc2)=NC1O` (centres unmarked) [Oxazepam, reference compound], which LD50 [1] is on record?
**A.** The LD50 was > 1500 mg/kg.

**Q.** What about the ED50 (Anti-pentylenetetrazol; [3]) of the same compound?
**A.** Its ED50 is 20 mg/kg.

**Q.** And the ED50 (Anti-pentylenetetrazol; [4])?
**A.** Its ED50 is 5.5 mg/kg.

**Q.** What about the ED50 (Anti-ECS; [5]) of the same compound?
**A.** Its ED50 is 40 mg/kg.

**Q.** What about the ED50 (Anti-ECS; [6]) of the same compound?
**A.** The ED50 was 4 mg/kg.

**Q.** And the ED50 (Analgesic; [7])?
**A.** Its ED50 is 28 mg/kg.

**Q.** And the ED50 (Miorelaxation; [8])?
**A.** Its ED50 is 25 mg/kg.

**Q.** And the ED50 [2]?
**A.** The ED50 was 4.2 mg/kg.

Reference: patent publication US4487771A, “C-3 Substituted 1,4-benzodiazepines and pharmaceutical utilization thereof” (Medosan Industrie Biochimiche Riunite, S.p.A., priority 1983, dated 1984)
